Source: US6613937B2, “S-nitroso- and S-nitro-N-acyl-L-cysteine ester derivatives as pharmalogically active agents and pharmaceutical compositions containing said compounds” (priority 1999, dated 2003)

Experiments:
[1] = humans; cited from earlier work
[2] = in vitro and in vivo, humans; cited from earlier work
human Corpus Cavernosum = test: Relaxation of the human Corpus Cavernosum in vitro; conditions: FIG. 1a
Description: A. Relaxation of the Human Corpus Cavernosum in vitro by Means of S-nitroso-N-acetylcysteine ethyl ester, S-nitroso-N-(O-acetylsalicyl)cysteine ethyl ester and Their Metabolites
a. Relaxation of the human Corpus Cavernosum in vitro by S-nitroso-N-acetylcysteine-ethylester (SNACET), S-nitroso-N-(O-acetylsalicyl)cysteine ethyl ester (ASS-SNCET) and their metabolites SNCET and SNAC.

human arteria mammaria = test: Relaxation of the human arteria mammaria in vitro; conditions: FIG. 1b
Description: B. Relaxation of the Human Arteria Mammaria in vitro by S-nitroso-N-acetylcysteine ethyl ester and S-nitro-N-acetylcysteine ethyl ester
b. Relaxation of the human arteria mammaria in vitro by S-nitroso-N-acetylxysteine ethyl ester (SNACET) and S-nitro-N-acetylcysteine ethyl ester (SNO2ACET).

human blood platelets = test: Inhibition of collagen-induced aggregation of washed human blood platelets in vitro; assay type: cell-based; conditions: Platelet, collagen-induced (2 μg/ml)
Procedure: Inhibition of the Aggregation of Human Blood Platelets in vitro by Means of S-nitroso-N-acetylcysteine ethyl ester (SNACET) and S-nitroso-N-(O-acetylsalicyl)cysteine ethyl ester (ASS-SNCET)
(§1) Collagen-induced (2 μg/ml) aggregation and thromboxane synthesis in human blood platelets which have been washed are inhibited by SNACET in a concentration-dependent manner (FIG. 4a). The IC50s for the inhibition of the platelet aggregation and the thromboxane synthesis by SNACET are determined at 1 and 0.5 μM. Collagen-induced (2 μg/ml) aggregation of human blood platelets that have been washed is inhibited by ASS-SNCET in a concentration-dependent manner (FIG. 4b). The IC50 for the inhibition of the platelet aggregation by ASS-SNCET is determined at 2 μM (FIG. 4b).
(§2) a. Inhibition of the collagen-induced (2 μg/ml) aggregation of human blood platelets that have been washed and the thromboxane synthesis in the platelets in vitro by S-nitroso-N-acetylcysteine ethyl ester (SNACET).
b. Inhibition of the collagen-induced (2 μg/ml) aggregation of human blood platelets in vitro that have been washed by S-nitroso-N-(O-acetylsalicyl)cysteine ethyl ester (ASS-SNCET). The values are average values from analyses with platelets of four healthy subjects.

[3] = Penetration by human Tunica albuginea in vitro in a Franz' cell; assay type: in vitro ADME; conditions: SNACET in dimethyl sulphoxide, FIG. 2
Procedure: Penetration of S-nitroso-N-acetylsysteine ethyl ester (SNACET) by Human Tunica albuginea in vitro
Part of Tunica albuginea which has just been prepared is fixed in a Franz' cell. The active surface is 1.77 cm^2. The acceptor phase (10 ml) consists of Hank's buffer (pH 7.4), human albumin (30 g/l), penicillin G (100 units) and streptomycin (10 μg) and is stirred with a magnetic stirrer at a constant rotation speed. The penetration is started by application of solutions of SNACET in dimethyl sulphoxide at various concentrations (0.25 ml) on the part of the skin. At various points in time, samples are taken from the acceptor phase and the concentration of the sum from SNACET and its metabolites is determined. In the acceptor phase, unmodified SNACET and other metabolites including nitrite are detected. […] The penetration rate and the amount of the penetrated SNACET and their metabolites in the acceptor phase depend on the amount of SNACET applied onto the Tunica albuginea. The lag time is approximately 20 min. In the linear region, the penetration rates are 1.0, 2.5 or 5.0 μmol SNACET/hour.
Penetration of S-nitroso-N-acetylcysteine ethyl ester (SNACET) by human Tunica albuginea in vitro in a Franz' cell. Three different amounts dissolved in dimethyl sulphoxide (250 μl each) were applied (see Legend).

Sprague Dawley rat = test: Hypotensive effect in vivo in the rat (i.v. infusion, average artery blood pressure); conditions: anaesthetised male Sprague Dawley rat, FIG. 3
Description: Hypotensive Effect of SNACET in vivo in the Rat
S-nitroso-N-acetylcysteine-ethylester (SNACET) is applied i.v. to a male, anaesthetised Sprague Dawley rat which has a weight of 400 g. Before and after the infusion, the average artery blood pressure is taken continuously.
Hypotensive effect of SNACET in vivo in the rat. SNACET was applied i.v. with the infusion rates stated.

[4] = tested on: thromboxane synthesis in human blood platelets; test: Inhibition of collagen-induced thromboxane synthesis in washed human blood platelets in vitro; assay type: cell-based; conditions: Platelet, collagen-induced (2 μg/ml)
Procedure: as §1, §2

[5] = In vivo metabolism of orally applied 15N-marked SNACET in the rat (urine, GC-MS); conditions: oral 17.5 mg/kg
Procedure: In vivo Metabolism of Orally Applied ^15N-marked S-nitroso-N-acetylcysteine ethyl ester (^15N-SNACET) in the Rat
A male Sprague Dawley rat weighing 480 g is orally given 17.5 mg of ^15N-marked S-nitroso-N-acetylcysteine ethyl ester (^15N-SNACET) per kg body weight, dissolved in 1 ml of a 10% (w/v) glucose solution in drinking water. Before and up to 24 hours after application, urine is collected and the ^15N-concentration of nitrate, nitrite and S-nitroso metabolites of ^15N-SNACET is determined by means of GC-MS.
Metabolism of orally applied ^15N-marked S-nitroso-N-acetylcysteine-ethylester (17.5 mg/kg body weight) in a rat. ^15N-concentration of nitrate, nitrite and for the sum of ^15N-marked S-nitroso-N-acetylcysteine ethyl ester and its metabolites collected in the urine before and up to 24 hours after the application.

[6] = in vivo in an animal; cited from earlier work

In the case of `N[C@@H](CCC(=O)N[C@@H](CSN=O)C(=O)NCC(=O)O)C(=O)O` [S-nitroso glutathion, S-nitroso-L-glutathion], the Rate of embolism [1] is given as “reduces the rate of embolism in humans” and the “Anti-hypertensive and anti-aggregatory effect” value [2] is given as “have an anti-hypertensive and an anti-aggregatory effect in humans”.

For `CC(=O)N[C@@H](CSN=O)C(=O)O` [SNAC, S-nitroso-N-acetylcysteine], the “Relaxation of human Corpus Cavernosum” value (human Corpus Cavernosum) was “relax human Corpus Cavernosum in vitro in a concentration-dependent manner”.

In the case of `CCOC(=O)[C@H](CSN=O)NC(C)=O` [SNACET, S-nitroso-N-acetylcysteine ethyl ester], the “Relaxation of human arteria mammaria” value (human arteria mammaria) is reported as “relax human arteria mammaria in vitro in a concentration-dependent manner”, the IC50 (human blood platelets) is reported as 1000 nM and the “Penetration of the Tunica albuginea” value [3] is reported as “penetrates the Tunica albuginea”. For the same molecule, the “Relaxation of human Corpus Cavernosum” value (human Corpus Cavernosum) was “relax human Corpus Cavernosum in vitro in a concentration-dependent manner”, the “Average artery blood pressure” value (Sprague Dawley rat) was “the average artery blood pressure decreases in dependence on the infusion rate” and the IC50 [4] was 500 nM.

In the case of `CCOC(=O)[C@@H](N)CSN=O` [SNCET, S-nitroso-cysteine ethyl ester], the “Relaxation of human Corpus Cavernosum” value (human Corpus Cavernosum) is reported as “relax human Corpus Cavernosum in vitro in a concentration-dependent manner”.

In the case of `CCOC(=O)[C@H](CS[N+](=O)[O-])NC(C)=O` [SNO2-ACET, S-nitro-N-acetylcysteine ethyl ester], the “Relaxation of human arteria mammaria” value (human arteria mammaria) is reported as “relax human arteria mammaria in vitro in a concentration-dependent manner”.

For `CCOC(=O)[C@H](CS[15N]=O)NC(C)=O` [^15N-SNACET, ^15N-marked S-nitroso-N-acetylcysteine ethyl ester], the “Time of the highest 15N-concentration in urine” value [5] was “within the first two hours”, the “15N-concentration in the urine 24 hours after the administration” value ([5]; 24 hours) was “insignificantly higher than the natural occurrence of ^15N” and the “Main metabolite in urine” value ([5]; urine up to 24 hours) was “^15N-nitrate”. The “Secretion of unchanged compound and S-nitroso metabolites into the urine” value ([5]; urine up to 24 hours) was “neither ^15N-SNACET no other S-[^15N]nitroso-containing metabolites are secreted into the urine”.

In the case of “S-nitroso-N-acetyl penicillamines [SNAP]”, the Development of tolerance [6] is listed as “show no development of tolerance”.
